Patent US20170000133A1, “BENZOXABOROLE FUNGICIDES” (SYNGENTA PARTICIPATIONS AG, priority 2013, published 2017)

Key:
[1] = system: Thanatephorus cucumeris (Rhizoctonia solani); experiment: Thanatephorus cucumeris (Rhizoctonia solani) / liquid culture (foot rot, damping-off); format: cell-based; conditions: PDB potato dextrose broth, 24° C., 3-4 days after application, read-out: disease control (inhibition of growth determined photometrically)
Procedure: 17. Thanatephorus cucumeris (Rhizoctonia solani)/Liquid Culture (Foot Rot, Damping-Off): Mycelia fragments of a newly grown liquid culture of the fungus were directly mixed into nutrient broth (PDB potato dextrose broth). After placing a DMSO solution of the test compounds into a 96-well microtiter plate at an application rate of 200 ppm, the nutrient broth containing the fungal material was added. The test plates were incubated at 24° C. and the inhibition of growth was determined photometrically 3-4 days after application.

[2] = system: Pythium ultimum; experiment: Pythium ultimum / liquid culture (seedling damping off); format: cell-based; conditions: Globisporangium ultimum; 200 ppm; potato dextrose broth, 24° C., 2-3 days after application; read-out: disease control (inhibition of growth determined photometrically)
[3] = system: Monographella nivalis (Microdochium nivale); experiment: Monographella nivalis (Microdochium nivale) / liquid culture (foot rot cereals); format: cell-based; conditions: PDB potato dextrose broth, 24° C., 4-5 days after application, read-out: disease control (inhibition of growth determined photometrically)
[4] = system: Mycosphaerella graminicola (Septoria tritici); experiment: Mycosphaerella graminicola (Septoria tritici) / liquid culture (Septoria blotch); format: cell-based; conditions: Zymoseptoria tritici, PDB potato dextrose broth, 24° C., 4-5 days after application, read-out: disease control (inhibition of growth determined photometrically)
Procedure: 13. Mycosphaerella graminicola (Septoria tritici)/Liquid Culture (Septoria Blotch): Conidia of the fungus from cryogenic storage were directly mixed into nutrient broth (PDB potato dextrose broth). After placing a DMSO solution of test compound into a 96-well microtiter plate at an application rate of 200 ppm, the nutrient broth containing the fungal spores was added. The test plates were incubated at 24° C. and the inhibition of growth was determined photometrically 4-5 days after application.

[5] = system: Plasmopara viticola; experiment: whole plant or invertebrate; format: in vivo; conditions: foliar, read-out: disease control
[6] = system: Gaeumannomyces graminis; experiment: Gaeumannomyces graminis / liquid culture (take-all of cereals); format: cell-based; conditions: PDB potato dextrose broth, 24° C., 4-5 days after application, read-out: disease control (inhibition of growth determined photometrically)
Procedure: 14. Gaeumannomyces graminis/Liquid Culture (Take-all of Cereals): Mycelial fragments of the fungus from cryogenic storage were directly mixed into nutrient broth (PDB potato dextrose broth). After placing a DMSO solution of test compound into a 96-well microtiter plate at an application rate of 200 ppm, the nutrient broth […], containing the fungal spores is added. The test plates were incubated at 24° C. and the inhibition of growth was determined photometrically 4-5 days after application.

Row | SMILES | inhibition at 200 ppm [1] [%] | inhibition at 200 ppm [2] [%] | inhibition at 200 ppm [3] [%] | inhibition at 200 ppm [4] [%] | pest or weed control at 200 ppm [5] [%] | inhibition at 200 ppm [6] [%]
1 | C=CCC(OC(=O)c1cc2c(cc1Cl)COB2O)C(=O)OC (stereo not drawn) [Compound 222] | ≥ 80 | ≥ 80 | ≥ 80 |  |  | 
2 | O=C(COC(=O)c1cc2c(cc1F)COB2O)c1ccccc1 [Compound 397] | ≥ 80 | ≥ 80 | ≥ 80 | ≥ 80 | ≥ 80 | 
3 | O=C(Nc1ccc(Oc2ccccc2)nc1)c1ccc2c(c1)B(O)OC2 [Compound 306] |  | ≥ 80 |  |  | ≥ 80 | 
4 | CC(F)COC(=O)c1ccc2c(c1)B(O)OC2 (stereo not drawn) [Compound 335] | ≥ 80 | ≥ 80 |  |  | ≥ 80 | 
5 | O=C(Nc1cc(C(F)(F)F)ccc1N1CCOCC1)c1ccc2c(c1)B(O)OC2 [Compound 291] |  |  |  |  |  | ≥ 80
6 | N#CCCOC(=O)c1cc2c(cc1F)COB2O [Compound 420] |  | ≥ 80 |  |  | ≥ 80 | 
7 | O=C(OC1CCCCC1)c1cc2c(cc1F)COB2O [Compound 417] | ≥ 80 | ≥ 80 | ≥ 80 | ≥ 80 | ≥ 80 | ≥ 80
8 | Cc1cc(=O)oc2cc(NC(=O)c3cc4c(cc3Cl)COB4O)ccc12 [Compound 139] |  | ≥ 80 |  |  |  | ≥ 80
9 | O=C(NCCc1c[nH]c2ccccc12)c1cc2c(cc1Cl)COB2O [Compound 97] |  | ≥ 80 |  |  |  | ≥ 80
10 | COC(=O)c1sccc1NC(=O)c1ccc2c(c1)B(O)OC2 [Compound 308] |  |  | ≥ 80 |  | ≥ 80 | 
11 | CC(C#N)OC(=O)c1cc2c(cc1F)COB2O (stereo not drawn) [Compound 376] |  | ≥ 80 |  |  | ≥ 80 | 
12 | Cc1nnc(NC(=O)c2cc3c(cc2F)COB3O)s1 [Compound 184] |  | ≥ 80 |  |  | ≥ 80 | 
13 | O=C(Nc1ccccc1N1CCOCC1)c1cc2c(cc1F)COB2O [Compound 170] |  | ≥ 80 |  |  | ≥ 80 | 
14 | O=C(Nc1ccc(-n2cccc2)cc1)c1cc2c(cc1Cl)COB2O [Compound 125] |  | ≥ 80 |  |  |  | ≥ 80
15 | O=C(NCc1ccccc1F)c1ccc2c(c1)B(O)OC2 [Compound 262] |  | ≥ 80 |  |  | ≥ 80 | 
16 | O=C(OCCc1ccc(Cl)cc1Cl)c1cc2c(cc1Cl)COB2O [Compound 190] |  |  | ≥ 80 |  |  | ≥ 80
17 | N#CCOC(=O)c1cc2c(cc1Cl)COB2O [Compound 213] |  | ≥ 80 |  |  | ≥ 80 | 
18 | O=C(NCc1ccc(Oc2ccccc2)cc1)c1cc2c(cc1Cl)COB2O [Compound 103] |  | ≥ 80 | ≥ 80 |  | ≥ 80 | ≥ 80
19 | Cc1ccccc1NC(=O)c1cc2c(cc1F)COB2O [Compound 148] | ≥ 80 | ≥ 80 |  |  |  | 
20 | O=C(OCc1ccco1)c1cc2c(cc1Cl)COB2O [Compound 210] | ≥ 80 | ≥ 80 |  |  |  | ≥ 80
21 | O=C(Nc1cccc(F)c1)c1ccc2c(c1)B(O)OC2 [Compound 285] |  | ≥ 80 |  |  | ≥ 80 | 
22 | O=C(Nc1ccc(S(=O)(=O)Nc2ccccn2)cc1)c1cc2c(cc1Cl)COB2O [Compound 143] |  | ≥ 80 |  |  | ≥ 80 | 
23 | O=C(OCC(Cl)(Cl)Cl)c1ccc2c(c1)B(O)OC2 [Compound 321] | ≥ 80 | ≥ 80 | ≥ 80 | ≥ 80 |  | ≥ 80
24 | O=C(NCc1cccc(Cl)c1)c1ccc2c(c1)B(O)OC2 [Compound 268] |  | ≥ 80 |  |  | ≥ 80 | 
25 | O=C(OCCC(F)(F)F)c1cc2c(cc1F)COB2O [Compound 431] | ≥ 80 | ≥ 80 | ≥ 80 |  |  | ≥ 80
26 | O=C(Nc1ccc2ccccc2n1)c1cc2c(cc1F)COB2O [Compound 179] |  | ≥ 80 | ≥ 80 | ≥ 80 | ≥ 80 | ≥ 80

Row | SMILES | inhibition at 200 ppm [1] [%] | inhibition at 200 ppm [2] [%] | inhibition at 200 ppm [3] [%] | inhibition at 200 ppm [4] [%] | pest or weed control at 200 ppm [5] [%] | inhibition at 200 ppm [6] [%]
27 | O=C(OCC1CCCO1)c1cc2c(cc1F)COB2O (stereo not drawn) [Compound 400] | ≥ 80 | ≥ 80 |  |  | ≥ 80 | 
28 | CC(NC(=O)c1cc2c(cc1F)COB2O)c1ccccc1 (stereo not drawn) [Compound 109] |  | ≥ 80 |  |  | ≥ 80 | 
29 | COc1ccc(NC(=O)c2cc3c(cc2F)COB3O)c(OC)c1 [Compound 155] |  | ≥ 80 |  |  | ≥ 80 | 
30 | O=C(Nc1ccccc1-c1cc2ccccc2[nH]1)c1ccc2c(c1)B(O)OC2 [Compound 292] |  | ≥ 80 |  |  | ≥ 80 | ≥ 80
31 | C=CC(=O)OCC(C)OC(=O)c1cc2c(cc1F)COB2O (stereo not drawn) [Compound 372] |  | ≥ 80 | ≥ 80 |  |  | 
32 | COc1ccc(NC(=O)c2ccc3c(c2)B(O)OC3)c(OC)c1 [Compound 283] |  | ≥ 80 |  |  | ≥ 80 | 
33 | O=C(NCc1ccccc1OC(F)(F)F)c1ccc2c(c1)B(O)OC2 [Compound 273] |  | ≥ 80 |  |  | ≥ 80 | 
34 | O=C(OC1COC1)c1cc2c(cc1F)COB2O [Compound 425] |  | ≥ 80 |  |  | ≥ 80 | ≥ 80
35 | N#CCOC(=O)c1ccc2c(c1)B(O)OC2 [Compound 338] | ≥ 80 | ≥ 80 |  |  | ≥ 80 | 
36 | O=C(NCc1ccccc1C(F)(F)F)c1cc2c(cc1Cl)COB2O [Compound 99] |  | ≥ 80 | ≥ 80 |  |  | 
37 | CC(C)c1ccc(NC(=O)c2ccc3c(c2)B(O)OC3)cc1 [Compound 279] |  | ≥ 80 | ≥ 80 |  | ≥ 80 | 
38 | O=C(NCc1ccccc1OC(F)(F)F)c1cc2c(cc1Cl)COB2O [Compound 95] |  |  | ≥ 80 |  | ≥ 80 | 
39 | CC(C#N)OC(=O)c1ccc2c(c1)B(O)OC2 (stereo not drawn) [Compound 315] | ≥ 80 | ≥ 80 |  |  |  | 
40 | O=C(Nc1ccc2ccccc2n1)c1cc2c(cc1Cl)COB2O [Compound 154] |  | ≥ 80 |  | ≥ 80 |  | 
41 | O=C(Nc1cccc(F)c1)c1cc2c(cc1F)COB2O [Compound 157] |  | ≥ 80 |  |  |  | ≥ 80
42 | O=C(Nc1ccc(Oc2ccccc2)nc1)c1cc2c(cc1F)COB2O [Compound 185] |  | ≥ 80 |  |  | ≥ 80 | 
43 | C[Si](C)(C)CCCOC(=O)c1ccc2c(c1)B(O)OC2 [Compound 316] | ≥ 80 | ≥ 80 | ≥ 80 |  |  | ≥ 80
44 | O=C(OC(CF)CF)c1cc2c(cc1F)COB2O [Compound 368] | ≥ 80 | ≥ 80 | ≥ 80 |  | ≥ 80 | 
45 | N#CCCOC(=O)c1ccc2c(c1)B(O)OC2 [Compound 357] |  | ≥ 80 |  |  | ≥ 80 | 
46 | C#CC(OC(=O)c1cc2c(cc1F)COB2O)c1ccccc1 (stereo not drawn) [Compound 399] | ≥ 80 | ≥ 80 | ≥ 80 | ≥ 80 | ≥ 80 | ≥ 80
47 | O=C(OC1CCOC1)c1ccc2c(c1)B(O)OC2 (stereo not drawn) [Compound 364] | ≥ 80 | ≥ 80 |  |  | ≥ 80 | 
48 | O=C(OCC(F)(F)Cl)c1cc2c(cc1F)COB2O [Compound 374] | ≥ 80 | ≥ 80 | ≥ 80 | ≥ 80 | ≥ 80 | ≥ 80
49 | O=C(Nc1ccc(S(=O)(=O)Nc2ccccn2)cc1)c1cc2c(cc1F)COB2O [Compound 174] |  | ≥ 80 |  |  | ≥ 80 | 
50 | O=C(OCc1ccc(C(F)(F)F)cc1Cl)c1cc2c(cc1Cl)COB2O [Compound 200] |  |  | ≥ 80 |  |  | ≥ 80
51 | COc1ccc(-c2ccccc2)cc1NC(=O)c1ccc2c(c1)B(O)OC2 [Compound 289] |  | ≥ 80 |  |  | ≥ 80 | 
52 | O=C(NCc1ccccc1F)c1cc2c(cc1Cl)COB2O [Compound 73] |  | ≥ 80 |  |  | ≥ 80 | 
